Assay results as given in US20100221763A1, “Specific Acceptors for Transferases to Saccharides and Method for Obtaining and Using Same” (Health Research, Inc, priority 2005, published 2010).
“And” between values parts separate entries of the source, which are not always exact repeats. Identical values can stand only once.

Tests used:
[1] = biological target: T1, Rat recombinant α2,3(O)ST (Rattus norvegicus, UniProt Q11205); experiment: Sialyltransferase assay with cloned α2,3(O)ST; format: biochemical; conditions: for Km / Vmax: CMP-NeuAc 150 μM, Lineweaver-Burke plot
T1 construct: purchased Calbiochem
T1 sequence (Q11205 1-350): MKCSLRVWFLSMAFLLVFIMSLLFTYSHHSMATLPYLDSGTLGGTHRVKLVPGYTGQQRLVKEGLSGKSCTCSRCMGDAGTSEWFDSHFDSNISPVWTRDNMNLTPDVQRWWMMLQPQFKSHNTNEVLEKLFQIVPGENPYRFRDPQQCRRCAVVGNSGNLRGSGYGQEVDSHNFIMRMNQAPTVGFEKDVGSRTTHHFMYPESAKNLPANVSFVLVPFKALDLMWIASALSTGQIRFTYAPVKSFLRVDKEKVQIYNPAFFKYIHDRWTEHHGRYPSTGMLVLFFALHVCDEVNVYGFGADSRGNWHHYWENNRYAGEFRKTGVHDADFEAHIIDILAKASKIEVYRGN

[2] = biological target: T1, Rat recombinant α2,3(O)ST; experiment: Sialyltransferase assay with cloned α2,3(O)ST; format: biochemical; conditions: for acceptor efficiency for cloned α2,3(O)ST: 0.75 mM, compared to 3-O-MeGalβ1,4GlcNAcβ1,6(Galβ1,3)GalNAcα-O-Bn; for Sialyltransferase activity (%) Cloned α2,3(O)ST: Table I, [14C] sialylated product quantitated on Biogel P2 column
LNCaP α2,3(O)ST = experiment: Sialyltransferase assay with LNCaP cell extract; format: biochemical, human
Procedure, shortened: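 LNCaP Triton X-100 extract (5 mg protein/ml; 0.1M Tris-maleate pH6.3) incubated with acceptor (typically 7.5 mM) and CMP-[9-3H]NeuAc (typically 0.2 μCi) in 0.1M Na cacodylate pH6.0, 2 h at 37 °C, in duplicate. Radioactive product separated on Dowex-1-formate, Sep-Pak C18 or Biogel P2 and counted by scintillation; blank without acceptor subtracted.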

[3] = biological target: T2, Rat recombinant α2,6(N)ST (Rattus norvegicus, UniProt P13721); experiment: Sialyltransferase assay with cloned α2,6(N)ST; format: biochemical; conditions: Table I; acceptor 7.5 mM; sialylated product quantitated on Biogel P2 column
T2 construct: purchased Calbiochem
T2 sequence (P13721 1-403): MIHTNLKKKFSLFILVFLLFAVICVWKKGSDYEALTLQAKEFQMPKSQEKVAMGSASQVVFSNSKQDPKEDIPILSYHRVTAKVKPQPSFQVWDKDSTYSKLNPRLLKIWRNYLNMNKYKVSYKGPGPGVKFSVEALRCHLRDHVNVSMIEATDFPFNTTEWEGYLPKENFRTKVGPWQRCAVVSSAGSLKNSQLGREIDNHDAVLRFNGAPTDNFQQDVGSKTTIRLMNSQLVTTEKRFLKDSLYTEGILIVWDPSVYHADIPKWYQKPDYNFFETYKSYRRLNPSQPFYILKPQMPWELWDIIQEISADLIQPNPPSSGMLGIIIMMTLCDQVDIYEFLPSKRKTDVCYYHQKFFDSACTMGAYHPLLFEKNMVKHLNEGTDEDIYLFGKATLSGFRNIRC
Protocol: Rat recombinant α2,3(O)ST, α2,3(N)ST and α2,6(N)ST were purchased from Calbiochem and stored at either −20° C. or −70° C. as recommended by the supplier. […] 10 μl aliquots of the diluted enzymes were used in the assays run in duplicate.
The incubation mixtures run in duplicate contained 0.1M NaCacodylate buffer pH6.0, the acceptor (typically at 7.5 mM, or as indicated in some experiments), CMP-[9 ^3H] NeuAc (typically 0.2 μci; 20 μci/nmol or as indicated in some experiments) and the enzyme in a total volume of 20 μl. The control incubation mixtures contained everything except the acceptor. Incubation was carried out for 2 h at 37° C. The enzymatic transfer of [9-^3H] NeuAc to a typical acceptor was linear for 2 h and less than 30% CMP-[9-^3H] NeuAc was utilized. Chromatography, using either Dowex-1-Formate, Sep-Pak C18 or Biogel P2, was applied to separate radioactive product from un-reacted [9-^3H] NeuAc as described below.
The radioactive products from neutral allyl and methyl glycosides as well as non-glycosides were measured by fractionation on Dowex-1-Formate (Bio-Rad: AG-1X8; 200-400 mesh; format form) as follows: The incubation mixture was diluted with 1.0 ml water and passed through AG-1-formate column (1.0 ml bed volume in a Pasteur pipet which had been washed with 5 ml of 2M Formic acid followed by 10 ml water). The column was washed twice with 1.0 ml water after the entry of the sample and then eluted with 3.0 ml of 0.1M NaCl. The radioactivity present in water and 0.1M NaCl eluates were measured separately using 3a70 scintillation cocktail (Research Products International, Mount Prospect, Ill.) and a Beckman LS6500 scintillation counter. The CPM values were corrected by subtracting the blank CPM. Any radioactivity present in the water eluate (as noticed in the case of some methylglycosides) was added to the corresponding CPM value of 0.1M NaCl eluate. The radioactive products from sulfated and/or sialylated methylglycosides were also measured by the above procedure, only the elution of the AG-1-Formate column was continued further with 3.0 ml of 0.2M NaCl for achieving a complete elution of the radioactive product, a correction being made as before by subtracting the corresponding blank values.
The radioactive products from benzylglycosides and monosialylated benzylglycosides were measured by hydrophobic chromatography on Sep-Pak C18 cartridge (Waters, Milford, Mass.) and eluting the product with 3.0 ml methanol (30). The radioactivity was determined by liquid scintillation as above.
For such work, a Biogel P2 column (Fine Mesh; 1.0×116.0 cm) was used with 0.1M pyridine acetate pH5.4 as the eluent at room temperature. The effluent fractions were monitored for radioactivity and the first peak containing radioactivity was collected, lyophilized to dryness, dissolved in 200 μl of water and stored frozen at −20° C. for thin layer chromatography (TLC) and other experimentation.

[4] = Table II, acceptor 0.75 mM, relative to Galβ1,3GalNAcα-O-Bn
[5] = Table II, acceptor 7.5 mM, relative to Galβ1,3GalNAcα-O-Bn

CC(=O)N[C@H]1[C@@H](OCc2ccccc2)O[C@H](CO)[C@H](O)[C@@H]1O[C@@H]1O[C@H](C)[C@H](O)[C@H](O)[C@H]1O [D-Fucβ1,3GalNAcα-O-Bn]
Km [1]: 210 µM | Vmax [1]: 1250 pmol/h | acceptor efficiency for cloned α2,3(O)ST [2]: 100%

CC(=O)N[C@H]1[C@@H](OCc2ccccc2)O[C@H](CO)[C@H](O)[C@@H]1O[C@@H]1O[C@H](CO)[C@H](O)[C@H](O)[C@H]1O [Galβ1,3GalNAcα-O-Bn]
Sialyltransferase activity (%) Cloned α2,3(O)ST [1, 4]: 100.0^8% | Sialyltransferase activity (%) Cloned α2,3(O)ST [1, 5]: 100.0^8% | Radioactivity incorporated (100% value) Cloned α2,3(O)ST ([2]; Table II, acceptor 0.75 mM): (42550 CPM) | Radioactivity incorporated (100% value) Cloned α2,3(O)ST ([2]; Table II, acceptor 7.5 mM): (43600 CPM) | Radioactivity incorporated (100% value) LNCaP α2,3(O)ST (LNCaP α2,3(O)ST; Table II, acceptor 0.75 mM): (30490 CPM) | Sialyltransferase activity (%) LNCaP α2,3(O)ST (LNCaP α2,3(O)ST; [4]): 100.0% | Radioactivity incorporated (100% value) LNCaP α2,3(O)ST (LNCaP α2,3(O)ST; Table II, acceptor 7.5 mM): (30600 CPM) | Sialyltransferase activity (%) LNCaP α2,3(O)ST (LNCaP α2,3(O)ST; [5]): 100.0%

CC(=O)N[C@H]1[C@H](OC[C@H]2O[C@H](OCc3ccccc3)[C@H](NC(C)=O)[C@@H](O[C@@H]3O[C@H](CO)[C@H](O)[C@H](OS(=O)(=O)O)[C@H]3O)[C@H]2O)O[C@H](CO)[C@@H](O[C@@H]2O[C@H](CO)[C@H](O)[C@H](O)[C@H]2O)[C@@H]1O [Galβ1,4GlcNAcβ1,6(3-O-SulfoGalβ1,3)GalNAcα-O-Bn]
Sialyltransferase activity (%) Cloned α2,3(O)ST ([2]; acceptor 7.5 mM): 33.1^e,7% | Sialyltransferase activity (%) Cloned α2,6(N)ST [3]: 127.4^e,18%

CC(=O)N[C@H]1[C@H](OC[C@H]2O[C@H](OCc3ccccc3)[C@H](NC(C)=O)[C@@H](O[C@@H]3O[C@H](C)[C@H](O)[C@H](O)[C@H]3O)[C@H]2O)O[C@H](CO)[C@@H](O)[C@@H]1O [D-Fucβ1,3(GlcNAcβ1.6)GalNAcα-O-Bn]
Km [1]: 280 µM | Vmax [1]: 1562 pmol/h | acceptor efficiency for cloned α2,3(O)ST [2]: 100%

CC(=O)N[C@H]1[C@H](OC[C@H]2O[C@H](OCc3ccccc3)[C@H](NC(C)=O)[C@@H](O[C@@H]3O[C@H](CO)[C@H](O)[C@H](O)[C@H]3O)[C@H]2O)O[C@H](CO)[C@@H](O[C@@H]2O[C@H](CO)[C@H](O)[C@H](OS(=O)(=O)O)[C@H]2O)[C@@H]1O [3-O-SulfoGalβ1,4GlcNAcβ1,6(Galβ1,3)GalNAcα-O-Bn]
Sialyltransferase activity (%) Cloned α2,3(O)ST ([2]; acceptor 7.5 mM): 70.3^e,6% | Sialyltransferase activity (%) Cloned α2,3(O)ST ([2]; acceptor 7.5 mM, listed as 3-O-sulfoGalβ1,4GlcNAcβ1,6(Galβ1,3)GalNAcα-O-Bn): 70.3%

C=CCO[C@H]1O[C@H](CO[C@@H]2O[C@H](CO)[C@@H](O)[C@H](O)[C@H]2NC(C)=O)[C@H](O)[C@H](O[C@@H]2O[C@H](CO)[C@H](O)[C@H](O)[C@H]2O)[C@H]1NC(C)=O [Galβ1,3(GlcNAcβ1,6)GalNAcα-O—Al]
Sialyltransferase activity (%) Cloned α2,3(O)ST ([1]; Table I, acceptor 7.5 mM, 100% = 40560 CPM (3-O-MeGalβ1,4GlcNAcβ1,6(Galβ1,3)GalNAcα-O-Bn)): 120.5^1% | Sialyltransferase activity (%) Cloned α2,3(O)ST ([1]; Table IV, compound 7.5 mM, relative to Galβ1,3(GlcNAcβ1,6)GalNAcα-O—Al): 100.0% | Radioactivity incorporated (100% value) Cloned α2,3(O)ST ([2]; Table IV, compound 7.5 mM): 29860 CPM | Sialyltransferase activity (%) LNCaP α2,3(O)ST (LNCaP α2,3(O)ST; Table I, acceptor 7.5 mM, 100% = 30930 CPM (3-O-MeGalβ1,4GlcNAcβ1,6(Galβ1,3)GalNAcα-O-Bn)): 60.4%

CC(=O)N[C@H]1[C@H](OC[C@H]2O[C@H](OCc3ccccc3)[C@H](NC(C)=O)[C@@H](O[C@@H]3O[C@H](CO)[C@H](O)[C@H](O)[C@H]3O)[C@H]2O)O[C@H](COS(=O)(=O)O)[C@@H](O)[C@@H]1O [6-O-SulfoGlcNAcβ1,6(Galβ1,3)GalNAcα-O-Bn]
Sialyltransferase activity (%) Cloned α2,3(O)ST ([2]; acceptor 7.5 mM): 49.4% and 49.4^e,5%
